In paper PMC6199744, “Development of Chemical Proteomics for the Folateome and Analysis of the Kinetoplastid Folateome” (ACS Infectious Diseases, 2018):
Like-named read-outs stand apart in the source and are kept apart here.

Experiments:
Type in all cases: binding
[1] = target: T1, HeLa cell extract proteins (Homo sapiens, UniProt Q9Y262)
T1 construct: endogenous in cells; host or cells: HeLa cell extract

[2] = target: T2, HeLa cell extract proteins (Homo sapiens, UniProt O75390)
T2 construct: endogenous in cells; host or cells: HeLa cell extract
T2 sequence (O75390 28-466): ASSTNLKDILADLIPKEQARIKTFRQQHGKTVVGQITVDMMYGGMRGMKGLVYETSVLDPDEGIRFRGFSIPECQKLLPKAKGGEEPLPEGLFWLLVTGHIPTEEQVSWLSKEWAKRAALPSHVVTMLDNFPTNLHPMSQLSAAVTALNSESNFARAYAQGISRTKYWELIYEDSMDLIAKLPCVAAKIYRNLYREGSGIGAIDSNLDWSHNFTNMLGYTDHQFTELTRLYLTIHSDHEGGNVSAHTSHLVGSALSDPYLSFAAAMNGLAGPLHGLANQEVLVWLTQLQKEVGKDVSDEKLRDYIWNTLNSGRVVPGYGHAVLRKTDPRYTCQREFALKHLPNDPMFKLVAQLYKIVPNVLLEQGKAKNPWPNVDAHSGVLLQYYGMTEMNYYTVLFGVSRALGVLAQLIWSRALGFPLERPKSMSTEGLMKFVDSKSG

[3] = target: T3, HeLa cell extract proteins (Homo sapiens, UniProt Q9BXR0)
T3 construct: endogenous in cells; host or cells: HeLa cell extract
T3 sequence (Q9BXR0 1-403): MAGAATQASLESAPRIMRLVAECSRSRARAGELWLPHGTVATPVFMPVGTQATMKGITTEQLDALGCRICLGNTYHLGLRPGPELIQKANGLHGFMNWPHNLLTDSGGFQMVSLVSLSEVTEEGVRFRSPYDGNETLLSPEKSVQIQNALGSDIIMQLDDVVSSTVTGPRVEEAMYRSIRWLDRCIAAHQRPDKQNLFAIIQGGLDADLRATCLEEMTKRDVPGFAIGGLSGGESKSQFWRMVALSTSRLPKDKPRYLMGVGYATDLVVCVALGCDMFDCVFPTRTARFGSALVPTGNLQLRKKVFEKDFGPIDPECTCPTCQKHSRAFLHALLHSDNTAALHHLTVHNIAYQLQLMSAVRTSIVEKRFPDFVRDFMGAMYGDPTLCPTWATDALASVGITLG

[4] = target: T4, HeLa cell extract proteins (Homo sapiens, UniProt P23526)
T4 construct: endogenous in cells; host or cells: HeLa cell extract

[5] = target: T5, HeLa cell extract proteins (Homo sapiens, UniProt Q53GQ0)
T5 construct: endogenous in cells; host or cells: HeLa cell extract
T5 sequence (Q53GQ0 1-312): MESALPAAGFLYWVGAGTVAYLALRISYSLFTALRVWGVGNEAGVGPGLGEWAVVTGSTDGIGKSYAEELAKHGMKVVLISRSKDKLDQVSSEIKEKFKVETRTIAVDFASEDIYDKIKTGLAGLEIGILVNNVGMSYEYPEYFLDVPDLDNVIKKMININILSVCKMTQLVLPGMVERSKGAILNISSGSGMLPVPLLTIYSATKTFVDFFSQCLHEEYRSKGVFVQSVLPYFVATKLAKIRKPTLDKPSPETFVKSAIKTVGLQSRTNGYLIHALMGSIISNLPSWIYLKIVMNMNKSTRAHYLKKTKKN

[6] = target: T6, HeLa cell extract proteins (Homo sapiens, UniProt Q9H583)
T6 construct: endogenous in cells; host or cells: HeLa cell extract
T6 sequence (Q9H583 whole entry): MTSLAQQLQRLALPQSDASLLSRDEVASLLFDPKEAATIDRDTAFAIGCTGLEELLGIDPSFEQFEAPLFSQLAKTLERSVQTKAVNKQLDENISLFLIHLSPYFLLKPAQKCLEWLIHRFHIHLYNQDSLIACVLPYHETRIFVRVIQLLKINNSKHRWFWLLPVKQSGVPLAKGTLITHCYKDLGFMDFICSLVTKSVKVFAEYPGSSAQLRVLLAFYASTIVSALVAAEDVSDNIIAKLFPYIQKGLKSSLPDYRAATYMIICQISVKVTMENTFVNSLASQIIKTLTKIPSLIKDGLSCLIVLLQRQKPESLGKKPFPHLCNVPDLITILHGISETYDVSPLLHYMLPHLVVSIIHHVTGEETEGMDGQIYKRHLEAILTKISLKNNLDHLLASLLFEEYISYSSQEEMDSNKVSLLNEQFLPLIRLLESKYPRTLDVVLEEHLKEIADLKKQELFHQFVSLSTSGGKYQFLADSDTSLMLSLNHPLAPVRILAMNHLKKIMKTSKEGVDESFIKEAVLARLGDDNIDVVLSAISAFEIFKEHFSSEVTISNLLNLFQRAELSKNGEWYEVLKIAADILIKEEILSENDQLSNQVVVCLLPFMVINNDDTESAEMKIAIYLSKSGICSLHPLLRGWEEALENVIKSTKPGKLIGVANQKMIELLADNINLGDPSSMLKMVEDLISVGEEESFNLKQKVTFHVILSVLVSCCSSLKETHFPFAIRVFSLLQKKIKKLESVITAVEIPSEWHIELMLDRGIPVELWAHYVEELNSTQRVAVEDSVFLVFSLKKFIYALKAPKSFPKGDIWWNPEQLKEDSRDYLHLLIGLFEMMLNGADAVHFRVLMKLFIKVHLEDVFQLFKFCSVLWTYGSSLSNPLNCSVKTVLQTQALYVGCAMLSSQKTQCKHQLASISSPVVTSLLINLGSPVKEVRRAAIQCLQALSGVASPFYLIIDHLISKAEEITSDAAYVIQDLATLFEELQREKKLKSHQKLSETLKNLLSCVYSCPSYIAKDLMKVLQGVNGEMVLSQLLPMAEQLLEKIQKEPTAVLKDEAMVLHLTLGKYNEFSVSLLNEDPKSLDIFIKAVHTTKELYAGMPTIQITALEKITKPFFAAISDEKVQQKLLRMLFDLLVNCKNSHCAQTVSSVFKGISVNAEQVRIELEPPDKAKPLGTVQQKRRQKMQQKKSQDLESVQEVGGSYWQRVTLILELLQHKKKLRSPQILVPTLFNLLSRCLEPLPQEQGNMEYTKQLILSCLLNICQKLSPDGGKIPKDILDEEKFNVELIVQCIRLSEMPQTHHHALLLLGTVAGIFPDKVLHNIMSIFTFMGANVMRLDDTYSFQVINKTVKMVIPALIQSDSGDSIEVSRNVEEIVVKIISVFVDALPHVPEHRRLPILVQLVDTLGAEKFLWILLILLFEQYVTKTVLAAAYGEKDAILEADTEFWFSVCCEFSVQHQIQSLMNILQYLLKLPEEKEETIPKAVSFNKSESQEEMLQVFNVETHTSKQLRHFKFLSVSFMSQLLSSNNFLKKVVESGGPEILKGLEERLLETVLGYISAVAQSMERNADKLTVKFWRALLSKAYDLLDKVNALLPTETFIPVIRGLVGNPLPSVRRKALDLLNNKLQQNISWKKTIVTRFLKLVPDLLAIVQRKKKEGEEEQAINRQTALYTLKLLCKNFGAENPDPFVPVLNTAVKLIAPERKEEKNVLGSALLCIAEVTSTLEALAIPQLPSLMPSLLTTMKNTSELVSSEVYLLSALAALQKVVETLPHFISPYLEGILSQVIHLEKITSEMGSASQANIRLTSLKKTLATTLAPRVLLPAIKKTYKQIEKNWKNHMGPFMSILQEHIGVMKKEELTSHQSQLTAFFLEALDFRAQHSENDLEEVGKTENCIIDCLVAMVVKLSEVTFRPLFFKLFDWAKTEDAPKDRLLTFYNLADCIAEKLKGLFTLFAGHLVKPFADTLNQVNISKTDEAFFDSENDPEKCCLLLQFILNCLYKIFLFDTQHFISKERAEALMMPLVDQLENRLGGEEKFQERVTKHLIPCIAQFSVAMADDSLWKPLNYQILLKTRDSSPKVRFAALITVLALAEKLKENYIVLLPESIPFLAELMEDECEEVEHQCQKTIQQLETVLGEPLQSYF

[7] = target: T7, HeLa cell extract proteins (Homo sapiens, UniProt Q92734)
T7 construct: endogenous in cells; host or cells: HeLa cell extract
T7 sequence (Q92734 whole entry): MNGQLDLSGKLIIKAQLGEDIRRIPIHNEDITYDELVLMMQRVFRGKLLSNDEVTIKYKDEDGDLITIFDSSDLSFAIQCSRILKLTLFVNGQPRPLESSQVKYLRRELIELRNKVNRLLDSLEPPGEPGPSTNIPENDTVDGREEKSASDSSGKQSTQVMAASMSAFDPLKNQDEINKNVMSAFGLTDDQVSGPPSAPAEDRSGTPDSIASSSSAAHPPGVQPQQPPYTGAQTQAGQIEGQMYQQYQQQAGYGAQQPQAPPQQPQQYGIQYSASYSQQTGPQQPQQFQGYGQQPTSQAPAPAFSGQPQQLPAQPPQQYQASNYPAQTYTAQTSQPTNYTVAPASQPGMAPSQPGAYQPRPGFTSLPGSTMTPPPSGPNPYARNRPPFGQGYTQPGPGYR

[8] = target: T8, HeLa cell extract proteins (Homo sapiens, UniProt O43242)
T8 construct: endogenous in cells; host or cells: HeLa cell extract
T8 sequence (O43242 whole entry): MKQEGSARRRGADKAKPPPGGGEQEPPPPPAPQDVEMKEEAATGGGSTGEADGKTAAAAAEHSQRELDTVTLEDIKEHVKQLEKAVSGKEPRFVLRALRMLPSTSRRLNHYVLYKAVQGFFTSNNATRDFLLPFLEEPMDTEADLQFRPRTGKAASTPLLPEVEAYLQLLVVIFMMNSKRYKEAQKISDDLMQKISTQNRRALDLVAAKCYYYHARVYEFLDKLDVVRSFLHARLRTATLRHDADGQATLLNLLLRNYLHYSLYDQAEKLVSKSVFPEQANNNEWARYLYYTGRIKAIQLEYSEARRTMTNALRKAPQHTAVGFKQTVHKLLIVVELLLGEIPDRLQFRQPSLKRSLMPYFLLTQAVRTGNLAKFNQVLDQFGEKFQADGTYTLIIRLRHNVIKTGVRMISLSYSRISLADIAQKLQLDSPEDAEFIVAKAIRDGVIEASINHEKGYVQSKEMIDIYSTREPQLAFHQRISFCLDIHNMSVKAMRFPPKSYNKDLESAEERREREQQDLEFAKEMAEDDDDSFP

[9] = target: T9, HeLa cell extract proteins (Homo sapiens, UniProt P49773)
T9 construct: endogenous in cells; host or cells: HeLa cell extract
T9 sequence (P49773 whole entry): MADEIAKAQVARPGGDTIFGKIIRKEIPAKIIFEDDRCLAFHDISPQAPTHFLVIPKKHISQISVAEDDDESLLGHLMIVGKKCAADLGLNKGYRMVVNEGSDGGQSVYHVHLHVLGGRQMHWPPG

[10] = target: T10, HeLa cell extract proteins (Homo sapiens, UniProt P50395)
T10 construct: endogenous in cells; host or cells: HeLa cell extract
T10 sequence (P50395 1-445): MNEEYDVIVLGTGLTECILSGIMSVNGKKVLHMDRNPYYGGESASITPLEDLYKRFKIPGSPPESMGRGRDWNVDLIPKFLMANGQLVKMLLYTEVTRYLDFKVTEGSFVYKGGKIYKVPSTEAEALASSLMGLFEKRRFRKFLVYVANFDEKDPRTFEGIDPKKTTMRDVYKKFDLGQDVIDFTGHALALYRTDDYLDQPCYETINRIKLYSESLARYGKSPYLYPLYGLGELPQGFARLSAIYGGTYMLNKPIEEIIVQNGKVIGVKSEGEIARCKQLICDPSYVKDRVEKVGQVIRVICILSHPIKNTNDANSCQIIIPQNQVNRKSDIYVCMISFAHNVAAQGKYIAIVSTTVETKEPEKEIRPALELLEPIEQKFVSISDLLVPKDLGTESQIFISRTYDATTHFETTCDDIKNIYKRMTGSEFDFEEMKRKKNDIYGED

[11] = target: T11, HeLa cell extract proteins (Homo sapiens, UniProt Q16576)
T11 construct: endogenous in cells; host or cells: HeLa cell extract
T11 sequence (Q16576 whole entry): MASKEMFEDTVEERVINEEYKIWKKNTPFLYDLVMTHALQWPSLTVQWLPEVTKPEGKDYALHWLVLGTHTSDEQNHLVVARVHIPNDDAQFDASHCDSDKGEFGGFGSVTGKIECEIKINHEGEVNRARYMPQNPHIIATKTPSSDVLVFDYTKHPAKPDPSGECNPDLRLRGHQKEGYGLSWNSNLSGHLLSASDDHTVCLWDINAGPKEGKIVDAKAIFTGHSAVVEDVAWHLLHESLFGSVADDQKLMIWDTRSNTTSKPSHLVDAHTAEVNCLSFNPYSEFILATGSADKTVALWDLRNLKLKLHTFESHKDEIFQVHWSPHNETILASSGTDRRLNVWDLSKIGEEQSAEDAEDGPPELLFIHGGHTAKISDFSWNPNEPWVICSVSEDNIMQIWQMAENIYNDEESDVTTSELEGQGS

[12] = target: T12, HeLa cell extract proteins (Homo sapiens, UniProt Q13618)
T12 construct: endogenous in cells; host or cells: HeLa cell extract

[13] = target: T13, HeLa cell extract proteins (Homo sapiens, UniProt P00367)
T13 construct: endogenous in cells; host or cells: HeLa cell extract
T13 sequence (P00367 54-558): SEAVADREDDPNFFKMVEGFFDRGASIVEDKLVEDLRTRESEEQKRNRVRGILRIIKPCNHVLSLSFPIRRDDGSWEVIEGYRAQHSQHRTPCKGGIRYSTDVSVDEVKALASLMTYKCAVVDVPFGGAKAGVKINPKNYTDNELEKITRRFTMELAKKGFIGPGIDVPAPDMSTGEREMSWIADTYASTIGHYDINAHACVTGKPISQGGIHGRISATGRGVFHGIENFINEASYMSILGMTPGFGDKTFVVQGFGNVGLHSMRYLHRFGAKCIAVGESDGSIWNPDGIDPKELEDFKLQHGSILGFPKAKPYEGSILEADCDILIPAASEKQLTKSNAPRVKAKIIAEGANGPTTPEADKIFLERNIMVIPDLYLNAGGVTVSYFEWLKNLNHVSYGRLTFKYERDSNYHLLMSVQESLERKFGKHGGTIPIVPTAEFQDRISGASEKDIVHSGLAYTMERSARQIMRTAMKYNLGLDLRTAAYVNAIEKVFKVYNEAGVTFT

[14] = captured protein HSD17B12, HeLa

T1 sequence (Q9Y262 whole entry): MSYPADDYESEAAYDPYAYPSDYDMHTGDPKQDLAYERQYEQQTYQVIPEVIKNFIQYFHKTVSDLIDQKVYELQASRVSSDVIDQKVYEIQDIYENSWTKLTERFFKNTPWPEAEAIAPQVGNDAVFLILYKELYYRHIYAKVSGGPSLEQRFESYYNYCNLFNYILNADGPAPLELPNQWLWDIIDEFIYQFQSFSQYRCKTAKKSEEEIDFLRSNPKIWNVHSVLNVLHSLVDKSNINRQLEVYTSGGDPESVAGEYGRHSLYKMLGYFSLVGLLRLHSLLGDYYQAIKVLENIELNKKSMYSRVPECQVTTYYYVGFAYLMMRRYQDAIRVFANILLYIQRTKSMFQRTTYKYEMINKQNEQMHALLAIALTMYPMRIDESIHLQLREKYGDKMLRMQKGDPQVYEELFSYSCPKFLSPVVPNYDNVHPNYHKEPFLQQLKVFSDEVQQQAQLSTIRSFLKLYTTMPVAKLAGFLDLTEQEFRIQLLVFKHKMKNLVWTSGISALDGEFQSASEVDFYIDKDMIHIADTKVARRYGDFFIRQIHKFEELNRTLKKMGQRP

Row | Compound | fold changes relative to vehicle control ([1]; HeLa, captured protein EIF3L) | fold changes relative to vehicle control ([2]; HeLa, captured protein CS) | fold changes relative to vehicle control ([3]; protein QTRT1, HeLa) | fold changes relative to vehicle control ([4]; HeLa, protein AHCY) | fold changes relative to vehicle control ([5]; protein HSD17B12, HeLa) | fold changes relative to vehicle control ([6]; HeLa, protein HEATR1) | fold changes relative to vehicle control ([7]; HeLa, captured protein TFG) | fold changes relative to vehicle control ([8]; protein PSMD3, HeLa) | fold changes relative to vehicle control ([9]; HeLa, captured protein HINT1) | fold changes relative to vehicle control ([10]; protein GDI2, HeLa) | fold changes relative to vehicle control ([11]; HeLa, protein RBBP7) | fold changes relative to vehicle control ([12]; HeLa, protein CUL3) | fold changes relative to vehicle control ([13]; HeLa, protein GLUD1) | fold changes relative to vehicle control ([1]; protein EIF3L, HeLa) | fold changes relative to vehicle control ([2]; protein CS, HeLa) | fold changes relative to vehicle control ([4]; protein AHCY, HeLa) | fold changes relative to vehicle control [5, 14] | fold changes relative to vehicle control ([7]; protein TFG, HeLa) | fold changes relative to vehicle control ([9]; HeLa, protein HINT1) | fold changes relative to vehicle control ([11]; protein RBBP7, HeLa) | other results
1 | Nc1nc2c(c(=O)[nH]1)N(C=O)C(CNc1ccc(C(=O)N[C@@H](CCC(=O)O)C(=O)O)cc1)CN2 (stereo partly shown) [LEU, leucovorin] | 1 | 1.05 | 0.96 | 0.98 | 0.78 | 0.94 | 1.01 | 1.08 | 1.12 | 0.93 | 1.05 | 0.92 | 1.06 |  |  |  |  |  |  |  | 
2 | Nc1nc2[nH]cc(CCc3ccc(C(=O)N[C@@H](CCC(=O)O)C(=O)O)cc3)c2c(=O)[nH]1 [PTX, pemetrexed] |  |  |  |  |  |  |  |  |  |  |  |  |  |  |  |  |  |  |  |  | fold changes relative to vehicle control [1]: 0.91; fold changes relative to vehicle control [2]: 1.2; fold changes relative to vehicle control [3]: 0.84; fold changes relative to vehicle control [4]: 0.98; fold changes relative to vehicle control [5]: 0.91; fold changes relative to vehicle control [6]: 0.98; fold changes relative to vehicle control [7]: 1.05; fold changes relative to vehicle control [8]: 1.1; fold changes relative to vehicle control [9]: 0.77; fold changes relative to vehicle control [10]: 0.9; fold changes relative to vehicle control [11]: 1.04; fold changes relative to vehicle control [12]: 0.92; fold changes relative to vehicle control [13]: 1.01
3 | CCCCCCOc1ccc(Cc2cnc(N)nc2N)cc1 [compound 1] |  |  | 0.51 |  |  | 1.14 |  | 1.21 |  | 1.06 |  |  |  | 1.05 | 1.38 | 1.01 | 0.87 | 0.96 | 1.03 | 1.05 | fold changes relative to vehicle control ([12]; captured protein CUL3, HeLa): 1.01; fold changes relative to vehicle control ([13]; protein GLUD1, HeLa): 1.09
4 | CCCCCCOc1cccc(Cc2cnc(N)nc2N)c1 [compound 2] |  |  | 1.05 |  |  | 1.2 |  | 1.51 |  | 1.81 |  |  |  | 1.25 | 1.99 | 1.26 | 0.91 | 1.16 | 0.99 | 1.47 | fold changes relative to vehicle control ([12]; captured protein CUL3, HeLa): 1.17; fold changes relative to vehicle control ([13]; protein GLUD1, HeLa): 1.33
5 | Nc1nc2cccc(-c3ccccc3)c2n1Cc1ccc(Cl)c(Cl)c1 [compound 3] |  |  | 1.03 |  |  | 1.12 |  | 1.1 |  | 0.72 |  |  |  | 1.09 | 1.02 | 0.86 | 1.15 | 1.02 | 1.17 | 0.85 | fold changes relative to vehicle control ([12]; captured protein CUL3, HeLa): 0.93; fold changes relative to vehicle control ([13]; protein GLUD1, HeLa): 0.92
6 | NCCOCCOCC(=O)Nc1nc2ncc(CNc3ccc(C(=O)NC(CCC(=O)O)C(=O)O)cc3)nc2c(=O)[nH]1 (stereo not shown) [compound 6] | 1.07 | 1.32 | 0.28 | 1.13 | 0.96 | 1.09 | 1.01 | 1.17 | 1.33 | 1.03 | 1.18 | 0.97 | 1.07 |  |  |  |  |  |  |  | 
7 | NCCCNc1ccc(C(=O)NC(CCC(=O)O)C(=O)O)cc1 (stereo not shown) [compound 7] | 0.93 | 1.3 | 0.98 | 0.99 | 1.19 | 1.04 | 1.06 | 1.02 | 1.33 | 1.02 | 0.98 | 0.91 | 0.97 |  |  |  |  |  |  |  | 
